Experimental data: US10537567B2, “Kinase inhibitors for treatment of disease” (BioAxone BioSciences, Inc., priority 2017, dated 2020)
Entries after “also recorded” stand apart in the source; their conditions may differ. Like-named read-outs stand apart in the source and are kept apart here.

Tests used:
[1] = tested on: cellular ROCK activity; assay: pMLC2 immunoblot dose-response in human trabecular meshwork cells; assay type: cell-based; conditions: serum starved TM cells, 1 hour treatment
Experimental: To quantify the inhibitory effect of the compounds the TM cells were serum starved and treated for 1 hour with the indicated compound concentration and then lysed and extracted for SDS-PAGE and immunoblotting for phosphorylated myosin light chain kinase 2 (pMLC2), which is a biomarker for cellular ROCK activity.

[2] = Penetration and distribution in ocular tissues after topical instillation (LC-MS); assay type: in vivo, Sprague Dawley rats; conditions: topical 5% solution of BA-1076, 20 minutes
Experimental: Adult Sprague Dawley rats (Charles River Laboratories) were used for this experiment. […] One g of tissue was homogenized in 1 mL of 1×PBS. Homogenates were precipitated by pipetting 200 μL of homogenate into a tube using aseptically cut off 1000 μL pipette tips to prevent clogging. Samples are further diluted with 100 μL PBS to aid in precipitation. 900 μL of cold methanol was added to each sample and samples were vortexed for 5 to 10 seconds. Samples were placed at 4° C. for 30 to 40 min and then centrifuged at 10,000 g for 15 min at 4° C. The supernatant is collected and stored at −80° C. until analyzed.
For the optic nerve sample, the concentration is shown per length of optic nerve (right y-axis). […] Therefore, drug is available in the retina and optic nerve for treating these tissues affected in glaucoma and other retinal diseases.
In FIG. 14 we examined the ability of metabolite to penetrate the ocular tissues of the eye after topical instillation of a 3% solution of metabolite. In comparison with FIG. 13, that also the metabolite has adequate penetration into ocular and CNS tissue. Of particular note is the penetration in the retina and presence in the optic nerve. All compounds were given topically as eye drops to the eye of adult Sprague Dawley rats. Twenty minutes later the indicated tissues were removed and the parent compound and active metabolite were analyzed by LC/MS.

[3] = target: ROCK1 (Homo sapiens, UniProt Q13464); assay: Direct filter-binding radiometric kinase assay (Eurofins) at Km ATP; assay type: biochemical; set-up: purchased Eurofins Testing (Dundee, Scotland, UK)
ROCK1, sequence (Q13464 whole entry): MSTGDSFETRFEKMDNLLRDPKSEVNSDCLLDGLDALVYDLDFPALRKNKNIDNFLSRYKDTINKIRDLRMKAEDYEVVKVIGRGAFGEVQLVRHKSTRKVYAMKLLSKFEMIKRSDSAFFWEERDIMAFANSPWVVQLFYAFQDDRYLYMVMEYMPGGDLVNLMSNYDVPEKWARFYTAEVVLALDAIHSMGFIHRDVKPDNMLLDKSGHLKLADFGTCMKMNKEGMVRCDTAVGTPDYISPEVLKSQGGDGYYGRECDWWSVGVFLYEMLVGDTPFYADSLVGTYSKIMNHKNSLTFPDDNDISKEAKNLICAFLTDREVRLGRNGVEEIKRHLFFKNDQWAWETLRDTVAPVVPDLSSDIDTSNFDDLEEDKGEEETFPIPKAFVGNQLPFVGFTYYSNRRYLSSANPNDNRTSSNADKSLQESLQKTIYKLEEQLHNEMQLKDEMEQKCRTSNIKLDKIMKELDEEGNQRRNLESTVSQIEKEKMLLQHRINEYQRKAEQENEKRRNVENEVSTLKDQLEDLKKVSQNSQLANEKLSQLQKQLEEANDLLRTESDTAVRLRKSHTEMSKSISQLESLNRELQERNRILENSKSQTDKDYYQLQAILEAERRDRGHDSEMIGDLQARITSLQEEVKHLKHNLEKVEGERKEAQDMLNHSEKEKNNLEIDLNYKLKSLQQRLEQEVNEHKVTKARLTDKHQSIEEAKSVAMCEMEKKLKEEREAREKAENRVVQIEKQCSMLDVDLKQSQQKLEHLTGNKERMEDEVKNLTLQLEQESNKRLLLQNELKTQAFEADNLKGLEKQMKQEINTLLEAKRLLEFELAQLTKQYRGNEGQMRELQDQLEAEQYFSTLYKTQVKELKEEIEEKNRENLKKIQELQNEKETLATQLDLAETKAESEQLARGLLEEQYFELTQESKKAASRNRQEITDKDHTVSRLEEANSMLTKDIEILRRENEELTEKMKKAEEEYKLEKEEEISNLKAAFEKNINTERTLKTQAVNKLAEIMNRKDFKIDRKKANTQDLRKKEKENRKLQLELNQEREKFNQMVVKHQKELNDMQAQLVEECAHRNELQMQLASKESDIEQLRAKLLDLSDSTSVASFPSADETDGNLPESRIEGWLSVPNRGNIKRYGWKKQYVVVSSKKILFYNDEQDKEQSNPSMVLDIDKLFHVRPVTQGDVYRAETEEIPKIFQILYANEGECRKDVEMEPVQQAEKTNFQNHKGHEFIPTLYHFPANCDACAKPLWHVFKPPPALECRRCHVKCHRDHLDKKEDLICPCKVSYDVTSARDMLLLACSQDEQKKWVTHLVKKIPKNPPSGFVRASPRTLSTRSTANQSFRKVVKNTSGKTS
Experimental: (§1) ROCK1 and ROCK2 IC50 determinations were made using ATP concentrations at the Km ATP of 70 μM and 15 μM for ROCK1 and ROCK2, respectively.
(§2) For the data shown in Table 4, IC50 inhibition curves were performed at the respective Km for ATP for both ROCK1 and ROCK2. Performing these assays at the Km of ATP gives a better representation of the inhibitory activity. Other comparisons where differing kinases are tested at a single ATP concentration can potentially misrepresent the comparative efficacy since enzyme inhibitory activity tested below the Km for ATP of the enzyme, produces a circumstance where the enzyme is actually not constantly bound with ATP and the reaction velocity becomes sub-optimal.

[4] = target: ROCK2 (Homo sapiens, UniProt O75116); assay: as above; assay type: biochemical; set-up: purchased Eurofins Testing (Dundee, Scotland, UK); conditions: for ROCK1/ROCK2 (fold difference): IC50 at respective Km ATP
ROCK2, sequence (O75116 whole entry): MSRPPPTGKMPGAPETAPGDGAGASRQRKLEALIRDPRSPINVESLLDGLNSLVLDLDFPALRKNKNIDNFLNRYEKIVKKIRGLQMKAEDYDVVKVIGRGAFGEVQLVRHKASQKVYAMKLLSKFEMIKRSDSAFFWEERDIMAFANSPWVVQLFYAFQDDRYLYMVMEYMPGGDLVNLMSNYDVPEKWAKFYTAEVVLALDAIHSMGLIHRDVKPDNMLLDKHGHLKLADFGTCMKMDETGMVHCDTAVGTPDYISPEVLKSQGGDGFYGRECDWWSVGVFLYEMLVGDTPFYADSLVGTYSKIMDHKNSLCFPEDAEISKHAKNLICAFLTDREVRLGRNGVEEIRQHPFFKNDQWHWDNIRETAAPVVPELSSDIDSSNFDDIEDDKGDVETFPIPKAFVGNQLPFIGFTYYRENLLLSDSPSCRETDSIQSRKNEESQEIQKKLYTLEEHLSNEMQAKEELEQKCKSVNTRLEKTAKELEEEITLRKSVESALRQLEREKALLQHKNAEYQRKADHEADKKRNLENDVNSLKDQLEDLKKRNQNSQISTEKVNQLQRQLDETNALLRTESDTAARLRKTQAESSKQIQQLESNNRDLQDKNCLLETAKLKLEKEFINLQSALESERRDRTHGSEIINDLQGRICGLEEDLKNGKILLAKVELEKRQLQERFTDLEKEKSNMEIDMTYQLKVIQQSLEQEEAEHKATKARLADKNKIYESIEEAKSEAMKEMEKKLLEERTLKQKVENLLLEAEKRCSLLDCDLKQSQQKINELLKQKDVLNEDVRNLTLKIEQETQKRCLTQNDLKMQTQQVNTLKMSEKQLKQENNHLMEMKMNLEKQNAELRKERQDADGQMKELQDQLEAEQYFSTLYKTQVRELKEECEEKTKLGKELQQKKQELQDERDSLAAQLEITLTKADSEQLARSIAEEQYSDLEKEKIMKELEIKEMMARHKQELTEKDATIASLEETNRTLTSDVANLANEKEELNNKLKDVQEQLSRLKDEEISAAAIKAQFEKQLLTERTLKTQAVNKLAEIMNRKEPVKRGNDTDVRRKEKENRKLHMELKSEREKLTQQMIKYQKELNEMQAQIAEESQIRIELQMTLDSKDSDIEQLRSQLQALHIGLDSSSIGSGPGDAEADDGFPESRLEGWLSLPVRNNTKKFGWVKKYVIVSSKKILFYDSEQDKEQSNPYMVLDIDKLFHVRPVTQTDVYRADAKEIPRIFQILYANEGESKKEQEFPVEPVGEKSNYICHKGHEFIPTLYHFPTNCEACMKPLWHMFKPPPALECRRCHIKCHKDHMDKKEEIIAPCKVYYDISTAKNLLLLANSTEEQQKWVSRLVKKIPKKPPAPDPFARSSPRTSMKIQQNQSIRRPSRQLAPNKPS
Experimental: as §1, §2

[5] = tested on: midbrain dopaminergic neurons; assay: MPTP mouse model; assay type: in vivo, C57BL/6 mice; conditions: 10 or 100 mg/kg per day in drinking water, 14 days
Description: Previous studies have shown that this compound causes the overactivation of the c-Abl non-receptor tyrosine kinase in these neurons, which then phosphorylates the Parkin E3 ubiquitin ligase leading to its inactivation (Ko et al., Proc. Nat. Acad. Sci. USA; 2010; 107:16691). Additionally, this neurotoxin is also known to cause the activation of Rho kinase (ROCK) in the brain when administered to animals (Rodriguez-Perez et al., Neurobiol. Dis., 2013; 58:209).
Different cohorts of adult C57BL/6 mice (Charles River; Wilmington, Mass.) (8 to 10 per group) receive intraperitoneal injections of either vehicle or 30 mg/kg of MPTP (Sigma; St. Louis, Mo.) dissolved in 0.9% saline for 5 consecutive days. This sub-acute/chronic treatment regimen typically leads to the death of 40 to 50% of midbrain dopaminergic neurons of the substantia nigra within 1 to 2 weeks (Meredith and Rademacher; J Parkinsons Dis.; 2011; 1(1):19).
The cohorts are carried forward for 14 days. On the final 2 days of the treatment paradigm, mouse cohorts are subjected to behavioral testing using the accelerated rotarod on one day or grid-walking test on the other day. At completion of the final behavioral test, animals are deeply anesthetized and then perfused transcardially with 4% paraformaldehyde in phosphate buffer. Brains are removed from the craniums and post-fixed for 1-2 hours. The brains are then immersed in 30% sucrose for cryo-protection. Whole coronal sections (20-25 μm thick) through the midbrain region containing the substantia nigra are obtained for each animal and thaw mounted onto SuperFost Plus slides (Thermo-Fisher). Individual sections are reacted with rabbit anti-tyrosine hydroxylase (TH) antibody (EMD-Millipore) overnight in PBS containing 0.05% Triton X-100 and 10% normal goat serum. After washing in PBS/Triton-X-100 multiple times, sections are reacted with […] goat anti-rabbit secondary antibody. Following another round of washing, the slides are reacted with Vecta Stain Elite ABC kit for DAB-enhanced peroxidase detection (Vector Labs; Burlingame, Calif.). Following peroxidase reaction, the sections are subjected to Nissl staining to label all cell types as a counterstain. The sections are then coverslipped in permanent mounting media.
Sections are examined by visible microscopy and photographic images captured. The number of TH positive neurons are estimated in the series of images by unbiased stereological analysis using Stereo Investigator. Numbers of TH-positive neurons per area of the substantia nigra are determined and statistical analyses performed to compare between, control untreated, MPTP/no treatment, MPTP/inhibitor treatments.

| SMILES | Reversal of ROCK activation (pMLC2) [1] | Penetration into ocular tissues [2] | IC50 ([3]; ATP at Km, 70 μM, * = higher purity BA-1076) [µM] | ROCK1/ROCK2 (fold difference) [4] | ROCK1/ROCK2 (fold difference) ([4]; listed as BA-1076*) | Cell loss in substantia nigra [5] | Motor function in behavioral testing [5] | IC50 [3] [µM] | IC50 [4] [µM] |
| --- | --- | --- | --- | --- | --- | --- | --- | --- | --- |
| C[C@H](N)C1CCN(S(=O)(=O)c2cccc3cnccc23)CC1 [BA-1076] | showed potency to reverse ROCK activation | penetrate the tissue of the eye, including the CNS tissue of the retina | 19.6 | 55.5 | 60.8 | prevent a significant percentage of the cell loss | improved motor function |  |  |
| C[C@H](N)C1CCN(S(=O)(=O)c2cccc3c(=O)[nH]ccc23)CC1 [BA-2057] | more potent than the parent BA-1076 | penetrate the tissue of the eye, including the CNS tissue of the retina; also recorded: the metabolite is better able to penetrate the optic nerve |  | 48.0 |  | prevent a significant percentage of the cell loss | improved motor function | 23.6 | 0.491 |
